The values below come from patent publication US20230241101A1 (priority 2020, published 2023).

Data set [1] concerns SARS-CoV-2. As to the kind of experiment: SARS-CoV-2 replication in Vero cells (qRT-PCR). The conditions noted are these: read-out: EC50, inhibition of 50% SARS-CoV-2 replication in Vero cells. It is filed as cell-based. On the technique in general: In qPCR the cycle at which signal appears reflects the starting amount.
In data set [2] the test system is SARS-CoV-2. Put plainly: GA treatment of COVID-19 golden hamster via intranasal administration. The conditions noted are these: nasal spray 25 mg/kg.bw daily, day 4. The class given is in vivo, golden hamster rats.
The subject of data set [3] is macrophage RAW264.7 cells. Put plainly: Cell viability CCK8, RAW264.7 cells. The class given is cell-based. The conditions noted are these: 48 hrs. The protocol:
(§1) To test whether GA and AF are toxic to normal cells, Vero E6, RAW264.7, and 16HBE cell lines were tested. Various doses of AURANOFIN or GA gold cluster were added into cell culture media respectively. After 48 hours of incubation, cell viability was checked by CCK8 (Beyotime, China) following the manufacturer’s instruction, all studies were carried out in triplicate. All cell lines were obtained from ATCC with authentication service.

Data set [4] concerns IL-6, IL-1β, TNF-α expression and NFκB pathway in RAW 264.7 cells. Put plainly: Western blot of cytokine expression and NFκB pathway, RAW 264.7 cells. The conditions noted are these: AF 1.2 µM, GA 40 µM. The class given is cell-based. The procedure: (§2) RAW 264.7 or 16HBE cells were seeded into 6 well plates at a density of 2 × 10^6cells/well. […] The collected cell lysates were centrifuged at 13000 rpm for 10 min, and the supernatants were stored for the subsequent Western Blot analysis. The protein concentrations of the supernatants were determined using a microplate spectrophotometer (SPECTRAMAX M4 of Molecular Devices, USA) at a wavelength of 595 nm. An equal quantity of proteins (50 µg) was separated by running on 10% SDS-PAGE and the separated proteins were transferred to a polyvinylidene fluoride (PVDF) membrane (0.45 µm, Millipore, USA). […]
In general terms: Immunoblotting shows a protein as a band on a membrane.

Data set [5] concerns IL-6, IL-1β, TNF-α expression and NFκB pathway in 16HBE cells. As to the kind of experiment: Western blot of cytokine expression and NFκB pathway, 16HBE cells. The class given is cell-based, human. The procedure: as §2
A further data set relates to BALB/c mice. The settings on record: cited from earlier work.
A further data set concerns SD Rat. The conditions noted are these: cited from earlier work.
The test system of a further data set is Vero E6 cell. Put plainly: Cell viability CCK8, Vero E6 cells. The class given is cell-based. The conditions noted are these: 48 hrs. The procedure:
as §1

For data set [6], the system named is inflammatory cytokine levels. The conditions noted are these: oral AF 6-9 mg/kg.bw; intraperitoneal GA 5 mg/kg.bw; cited from earlier work.
The test system of data set [7] is human bronchial epithelial cells (16HBE). Put plainly: Cell viability CCK8, 16HBE cells. The settings on record: 16HBE epithelial cell, 48 hrs. The class given is cell-based. The protocol: as §1
The test system of data set [8] is SARS-CoV-2. The settings on record: Rothan et al, Virology 2020; read-out: EC50, SARS-CoV-2 replication in infected Huh cells; cited from earlier work.
For a further data set, the target named is SARS-CoV-2 M^pro (Severe acute respiratory syndrome coronavirus 2, UniProt P0DTD1). Put plainly: M^pro protease activity FRET assay. The settings on record: no value printed (data not shown or figure only). The class given is biochemical.

Read-outs that look alike come from different tables or passages of the source.

By EC50 is commonly meant the concentration needed to bring the measured effect to its halfway point. For `CCC(CC)COC(=O)[C@H](C)N[P@](=O)(OC[C@H]1O[C@@](C#N)(c2ccc3c(N)ncnn23)[C@H](O)[C@@H]1O)Oc1ccccc1`, in the data set with SARS-CoV-2 [1] (Severe acute respiratory syndrome coronavirus 2, Vero, 48 h), the EC50 was ~650 nM. The “average pathological score of lung (INHAND)” value in the data set on SARS-CoV-2 [2] is given as “approx. 2.7”.
For orientation: CC50 means the concentration giving 50% cytotoxicity. A higher CC50 goes with better tolerance by the cells. As to `CC(=O)OC[C@H]1O[C@@H]([S-])[C@H](OC(C)=O)[C@@H](OC(C)=O)[C@@H]1OC(C)=O.CCP(CC)CC.[Au+]` [AF, AURANOFIN], the cytotoxic concentration (CC50) in data set [3] is ~2630 nM; in the data set with Vero E6 cell, ~2270 nM; in [7], ~630 nM. Further, in data set [4] (inflammatory macrophage cells), the “phosphorylation of IKK, IκB, and p65 (NFκB activation)” value is given as “inhibit”. Further, the “IL-6, IL-1β, and TNF-α expression levels” value in [4] (macrophage cells, TNFα 50 ng/mL, 24 hrs) is reported as “significantly suppressed”; in [5] (human bronchial epithelial cells, TNFα 50 ng/mL, 24 hrs, AF 1.2 µM, GA 40 µM), “significantly suppressed”. In addition, the “phosphorylation level of IKK, IκB, p65 and IL-6, IL-1β, TNF-α expression” value in [5] (bronchial epithelial cells, AF 0.15 µM, GA 20 µM) is on record as “significantly inhibited”. Besides, the LD50 entry with BALB/c mice (BALB/c Mice, AF known value) is listed as “LD50, about 33.8 mg/kg.bw”; in the data set with SD Rat (SD Rat, AF known value), “LD50, about 25 mg/kg.bw”. For the same molecule, the “intraperitoneal LD50” value with BALB/c mice (mice, known value) was “about 33.8 mg/kg”; in the data set with SD Rat (rat, known value), “about 25.5 mg/kg”. Moreover, the EC50 was ~830 nM in the data set on SARS-CoV-2 [1] (MOI 0.015, 48 h.p.i., qRT-PCR) and ~1400 nM in the data set on SARS-CoV-2 [8]. The inflammatory cytokine levels result in data set [6] is “significant suppression”.
In the case of `OC[C@H]1O[C@H]([S-])[C@H](O)[C@@H](O)[C@@H]1O.[Au+]` [aurothioglucose], the “inhibition / suppression of M^pro protease activity (in words)” value against SARS-CoV-2 M^pro is on record as “able to inhibit”.
